Experimental data from patent US6011032A, “Heterocyclic compounds for treating myocardial ischemia” (Pierre Fabre Medicament, priority 1995, dated 2000).
Structures can show the parent of a compound that is named as a salt.

Assays:
[1] = tested on: anaesthetized rabbits; test: Reinfusion ischemia in anaesthetized rabbits (iv); format: in vivo, rabbit; conditions: 0.16 mg/kg iv
Source text: (§1) The compounds of the present invention of formula I and the therapeutically acceptable salts thereof have advantageous pharmacological properties. These derivatives are active on cardiomyocytes by inhibiting the diastolic contraction induced by veratrine in isolated rat left atrium. These compounds are also active in vivo during reinfusion ischemia in anaesthetized rabbits: they inhibit the electrical disturbances in the ECG caused by the reinfusion ischemia without any appreciable hemodynamic effect and are not cardiac depressors. Such compounds are useful for preventive or curative purposes in the treatment of coronaropathies and cardiac and cerebral ischemia in all their forms and in the treatment of atherosclerosis.
Compounds of the present invention are also active via the venous route in the test of reinfusion ischemia in anaesthetized rabbits according to the method of Verscheure et al. (Fundam Clin Pharmacol (1993) 7, 385). The results for the compounds of Examples 1, 2, 11 and 15 are given in the table below by way of non-limiting example: […]

[2] = tested on: isolated rat left atrium; test: Inhibition of contraction of isolated rat left atrium by veratrine; format: cell-based
Source text: as §1
Inhibition of contraction of isolated rat left atrium by veratrine was carried out according to the technique of Le Grand et al. (Naunyn--Schmiedeberg's Arch Phazmacol (1993) 348 pp. 184-190). The results are given in the table below, in which the IC50 values are expressed in micromoles for certain compounds, by way of non-limiting examples: […]

CC(C)NCC(O)COc1ccc(CC(N)=O)cc1 (centres unmarked) [Atenolol, reference compound]
% arterial pressure variation [1]: -9% | % heart rate variation [1]: -13% | % inhibition ST segment [1]: 64% | Number of arrythmias under reinfusion [1]: 4/6

COc1ccc([C@@H]2Sc3ccccc3N(CCN(C)C)C(=O)[C@@H]2OC(C)=O)cc1 [Diltiazem, reference compound]
% arterial pressure variation [1]: -27% | % heart rate variation [1]: -5% | % inhibition ST segment [1]: 61% | Number of arrythmias under reinfusion [1]: 0/6

CN(C1=Nc2ccccc2CS1)C1CCN(CCCCOc2ccc(F)cc2)CC1.O=C(O)/C=C\C(=O)O [Example 1, N-Methyl-N-[1-[4-(4-fluorophenoxy)butyl]piperid-4-yl]-4H-3,1-benzothiazin-2-amine hydrogen maleate]
% arterial pressure variation [1]: +6% | % heart rate variation [1]: +3% | % inhibition ST segment [1]: 76% | Number of arrythmias under reinfusion [1]: 3/5 | IC50 [2]: 150 nM

CN(C1=Nc2ccccc2CS1)C1CCN(CCCOc2ccc(F)cc2)CC1.O=C(O)/C=C\C(=O)O [Example 2, N-Methyl-N-[1-[3-(4-fluorophenoxy)propyl]piperid-4-yl]-4H-3,1-benzothiazin-2-amine hydrogen maleate]
% arterial pressure variation [1]: +4% | % heart rate variation [1]: -3% | % inhibition ST segment [1]: 76% | Number of arrythmias under reinfusion [1]: 1/5

CN(C1=Nc2ccccc2CS1)C1CCN(CCCCOc2ccc(F)c(F)c2)CC1 [Example 11, N-Methyl-N-[1-[4-(3,4-difluorophenoxy)butyl]piperid-4-yl]-4H-3,1-benzothiazin-2-armine hydrogen maleate]
% arterial pressure variation [1]: +3% | % heart rate variation [1]: -1% | % inhibition ST segment [1]: 71% | Number of arrythmias under reinfusion [1]: 1/5

CN(C1=Nc2ccccc2CS1)C1CCN(CC(O)COc2ccc(F)cc2)CC1.Cl.Cl (centres unmarked) [Example 15, N-Methyl-N-[1-[2-hydroxy-3-(4-fluorophenoxy)propyl]-piperid-4-yl]-4H-3,1-benzothiazin-2-amine dihydrochloride]
% arterial pressure variation [1]: +5% | % heart rate variation [1]: 0% | % inhibition ST segment [1]: 90% | Number of arrythmias under reinfusion [1]: 1/5 | IC50 [2]: 320 nM

CN(c1nc2ccccc2s1)C1CCN(CCCCOc2ccc(F)cc2)CC1 [R 56865, N-(1-(4-(4-fluorophenoxy)butyl)piperid-4-yl)-N-methyl-2-benzothiazolamine, reference compound]
IC50 [2]: 250 nM

CN(c1nc2ccccc2s1)C1CCN(CC(O)COc2ccc(F)cc2)CC1 (centres unmarked) [Sabeluzole, N-(1-(2-hydroxy-3-(4-fluorophenoxy)propyl)piperid-4-yl)-N-methyl-2-benzothiazolamine, reference compound]
% arterial pressure variation [1]: 2% | % heart rate variation [1]: -5% | % inhibition ST segment [1]: 84% | Number of arrythmias under reinfusion [1]: 1/5 | IC50 [2]: 5100 nM
